Values joined by “and” are separate entries in the source; they are usually repeats but may differ in a detail not shown here. Equal entries are not always repeated. “Also recorded” adds a separate entry of the source.
What was measured:
CD-1 mice (male) = assay: Acute toxicity of NPe6 in mice (LD50); format: in vivo
anti-ds-DNA antibody = assay: Anti-ds-DNA antibody value in blood of MRL/1pr mice after NPe6 photochemotherapy (Anti-DNA kit); format: in vivo
Source text: (§1) MRL/1pr mice, which are known as a model of a spontaneous systemic auto-immune diseases, have such inherent property that they spontaneously develop the systemic auto-immune disease due to 1pr-gene. In this case, the characteristic observations of the resulting auto-immune disease include the formation of lymphoma and splenoma as caused by proliferation of heterolymphoid cells, the production of anti-ds-DNA antibody as the auto-antibody, and (or) the outbreak of lupus nephritis owing to the deposition of immune complexes, whereby an early death of the MRL/1pr mice can naturally be involved. For instance, untreated MRL/1pr mice usually have such nature that their mortality reaches 50% at 25 week-old.
(§2) To MRL/1pr mice (eight mice per group) of 18 week-old age which have been affected completely by auto-immune diseases, a solution of mono-L-aspartyl chlorin e6 tetrasodium salt (abbreviation: NPe6) dissolved in a physiological saline solution at a NPe6 concentration of 0.1 mg/ml was intra-venously administered in such an amount to give a dosage of NPe6 of 0.5 mg/kg. […] After 24 hours from the completion of the therapeutic treatments, which was counted from the final run of irradiation of the laser light applied to the mice of the treated group, and thus at the time when the mice tested became 19 week-old, the judgment was made about the therapeutical effects appeared on the treated mice. […]

MRL/1pr mice [1] = assay: Liver (GPT enzyme in blood) and skin safety in MRL/1pr mice after NPe6 photochemotherapy; format: in vivo
Procedure: as §2, with “mg/kg. After 30 minutes from the administration of NPe6, the mice were irradiated with a laser light at wave-length of 664 nm in such a manner that the skin surface on the abdominal region already shaved off of said mice would receive the laser light over a wide area of about 25 cm^2 per mouse tested at an intensity of 20 Joules/cm^2. Thus, the NPe6 contained in the blood stream within the blood vessel beneath the skin of the abdominal region of the mice was irradiated with the laser light and thereby was excited photochemically.” for “mg/kg.”

MRL/1pr mice [2] = assay: Kidney function (urea nitrogen in blood, protein in urine) of MRL/1pr mice after NPe6 photochemotherapy; format: in vivo; conditions: 19 weeks old, 24 h after 8th laser irradiation, NPe6 0.5 mg/kg i.v. + 664 nm laser, eight times
Source text: as §1, §2

MRL/1pr mice [3] = assay: Survival of MRL/1pr mice after NPe6 photochemotherapy; format: in vivo; conditions: for Survival rate (%) of the mice: treated group, 8 mice
Source text: as §1
To MRL/1pr mice (eight mice per group) of 18 week-old age which have been affected completely by auto-immune diseases, a solution of mono-L-aspartyl chlorin e6 tetrasodium salt (abbreviation: NPe6) dissolved in a physiological saline solution at a NPe6 concentration of 0.1 mg/ml was intra-venously administered in such an amount to give a dosage of NPe6 of 0.5 mg/kg. After 30 minutes from the administration of NPe6, the mice were irradiated with a laser light at wave-length of 664 nm in such a manner that the skin surface on the abdominal region already shaved off of said mice would receive the laser light over a wide area of about 25 cm^2 per mouse tested at an intensity of 20 Joules/cm^2. Thus, the NPe6 contained in the blood stream within the blood vessel beneath the skin of the abdominal region of the mice was irradiated with the laser light and thereby was excited photochemically. Such photochemotherapeutic procedure comprising the intravenous administration of NPe6 and the irradiation of the laser light was applied eight times to each of the mice under test for 10 days. After 24 hours from the completion of the therapeutic treatments, which was counted from the final run of irradiation of the laser light applied to the mice of the treated group, and thus at the time when the mice tested became 19 week-old, the judgment was made about the therapeutical effects appeared on the treated mice. Further, the survival effect on the treated mice was also observed over the period of from the start of practicing this therapeutic treatments to the point of the 49 week-old age of the mice.
For the untreated group of MRL/1pr mice (10 mice per group, 18-weeks old), merely a physiological saline solution (containing no NPe6) was administered intravenously in the same amount as that for the treated group of mice, and then the mice were irradiated with a laser light as similar as the treated group of mice.
(3) After the completion of the treatment as effected by the above-mentioned photochemotherapeutic procedure, the mice under the test were bred to be 49-weeks old and the survival rate (%) of the mice was measured once a week.

[4] = in vivo

## C=Cc1c(C)c2cc3nc(c(CC(=O)N[C@@H](CC(=O)[O-])C(=O)[O-])c4[nH]c(cc5nc(cc1[nH]2)C(C)=C5CC)c(C)c4C(=O)[O-])[C@@H](CCC(=O)[O-])[C@@H]3C.[Na+].[Na+].[Na+].[Na+] [NPe6, mono-L-aspartyl chlorin e6 tetrasodium salt]
CD-1 mice (male)
  acute toxicity, LD50 value: 164 mg/kg
anti-ds-DNA antibody; 19 weeks old, 24 h after 8th laser irradiation, NPe6 0.5 mg/kg i.v. + 664 nm laser 20 Joules/cm^2, eight times for 10 days
  antibody value of anti-ds-DNA antibody in blood: 5.7±5.3 IU/ml
anti-ds-DNA antibody; NPe6 i.v. + laser light at 664 nm, versus untreated group
  effect on antibody value of the auto-antibody (anti-ds-DNA) in blood, in words: decreasing remarkably the antibody value; also recorded: significantly and remarkably decreased
MRL/1pr mice [1]; 19 weeks old, 24 h after 8th laser irradiation
  content of GPT enzyme in the blood compared with untreated group: no difference was found
MRL/1pr mice [1]; shaved abdominal region, 664 nm laser 20 Joules/cm^2
  visual observation of the skin after eight percutaneous laser irradiations: not observed visually that any action of changing the skin was involved
MRL/1pr mice [2]
  content of protein in urine: 85.2 ± 5.0 mg/dL
  content of urea nitrogen in blood: 22.3 ± 1.4 mg/dL
MRL/1pr mice [3]; age 18 weeks (start of treatment), number in parentheses = surviving mice
  Survival rate (%) of the mice: 100 (8) %
MRL/1pr mice [3]; age 20 weeks
  Survival rate (%) of the mice: 100 (8) %
MRL/1pr mice [3]; age 21 weeks
  Survival rate (%) of the mice: 100 (8) %
MRL/1pr mice [3]; age 23 weeks
  Survival rate (%) of the mice: 100 (8) %
MRL/1pr mice [3]; age 25 weeks
  Survival rate (%) of the mice: 100% and 100 (8) %
MRL/1pr mice [3]; age 27 weeks
  Survival rate (%) of the mice: 100 (8) %
MRL/1pr mice [3]; age 30 weeks
  Survival rate (%) of the mice: 100 (8) %
MRL/1pr mice [3]; age 33 weeks
  Survival rate (%) of the mice: 88 (7) %
MRL/1pr mice [3]; age 36 weeks
  Survival rate (%) of the mice: 88 (7) %
MRL/1pr mice [3]; age 43 weeks
  Survival rate (%) of the mice: 75 (6) %
MRL/1pr mice [3]; age 46 weeks
  Survival rate (%) of the mice: 63 (5) %
MRL/1pr mice [3]; age 49 weeks
  Survival rate (%) of the mice: 63 (5) %
MRL/1pr mice [3]; treated group of MRL/1pr mice
  age at which the survival rate of the mice is 50 %: > 49 weeks
[4]
  photo-toxicity test: reactions such as erythema, edema: no reactions such as erythema, edema
